Measured values reported in paper PMC4942610, “Exploration of acetanilide derivatives of 1-(ω-phenoxyalkyl)uracils as novel inhibitors of Hepatitis C Virus replication” (Scientific Reports, 2016).
pIC50: −log10 of the molar value. Values joined by “and” are separate entries in the source; they are usually repeats but may differ in a detail not shown here. Identical values can stand only once. Like-named read-outs stand apart in the source and are kept apart here.

Legend:
HCVcc gt 2a strain JFH-1 [1] = assay: HCVcc JFH-1 infection of Huh7-J20 reporter cells, second protocol (full life cycle), SEAP dose-response; assay type: cell-based, Hepatitis C Virus; conditions: JFH-1 HCVcc gt2a, 3 d post-infection
Huh7-J20 cells [2] = system: Huh7-J20 cells
Description: (§3) All the drugs were tested starting from the concentration of 30 μM with 3-fold dilutions.
(§4) Huh7, Huh7-J20 and Huh7-J17 cells were tested for viability in the same conditions described for antiviral assays. Cells grown in a 96-well tissue culture plate in the presence of the drugs or DMSO control were incubated with the WST-1 reagent (Roche) for 3 h as per the manufacturer’s protocol. Cell viability was obtained reading absorbance at 450 nm with PHERAstar (BMG Labtech).

[3] = system: gt3a S52-WT-∆N sub-genomic replicon; assay: gt3a sub-genomic replicon dose-response; assay type: cell-based, Hepatitis C Virus; conditions: Huh7.5-SEC14L2 cells electroporated with S52-WT-∆N RNA, 72 h, luciferase
HCVcc JFH-1DSGCSL = assay: Viral RNA quantification after infection with adaptive mutant JFH-1DSGCSL (Protocol 3), RT-qPCR; assay type: cell-based, Hepatitis C Virus; conditions: 10 μM, Huh7 cells, Protocol 3, 72 h post-infection
Description: To further confirm antiviral activity, we tested Z385, Z387, Z400, and Z401 on a cell culture adaptive derivative HCV JFH-1DSGCSL strain that consistently replicates to high titres. Huh7 cells were infected with HCVcc JFH-1DSGCSL in the presence of drugs as per Protocol 3 described above and RNA was collected 72 h post-infection. Total RNA and the viral RNA were quantified as above.
Figure 5 Antiviral activity on cell-culture adaptive mutant JFH-1DSGCSL. Huh7 cells were infected following the third protocol with adaptive mutant virus and incubated for 3 d with drugs at the concentration of 10 μM. Viral RNA levels and relative SEAP activity were measured as previously described.
Huh7 Lunet-CD81 cells and their control Huh7L- H/EF cells were electroporated with 5 μg of JFH-1 RNA, seeded with drugs in a 12-well tissue culture dish and incubated for 3 d. Cellular RNA was isolated using TRI Reagent (Sigma) following manufacturer’s protocol. RNA quantification from the released viral particles was performed as below following digestion of infected cell medium with RNAse A for 2 h and RNA extraction using the RNeasy kit (Qiagen). HCV RNA quantification was carried out by RT-qPCR using TaqMan probes as reported. Briefly, 250 ng of total RNA were reverse transcribed to obtain cDNA in a 20 μl reaction using TaqMan Reverse Transcription Reagents (Life Technologies) with random hexamers, following manufacturer’s protocol. Reverse transcription was performed at 48 °C for 30 min, followed by 5 min at 85 °C. The qPCR was performed with 1.5 μl of cDNA in a 15 μl reaction mixture (TaqMan Fast Universal PCR Master Mix; Life Technologies) with 250 nM of Fw_primer (5′- […]-3′), 250 nm of Rev_primer (5′-[…]-3′) and 250 nM of TaqMan MGB (minor-groove binding) probe labelled with 6-carboxyfluorescin (5′-FAM-[…]-MGB-3′). Samples were placed in an ABI Fast 7500 instrument (Life Technologies) and were amplified using the following parameters: 95 °C for 5 minutes with cycling parameters set to 95 °C for 3 s and 60 °C for 30 s for 40 cycles. Absolute quantification was carried out using linear regression on a standard curve based on pJFH-1 serial dilution.

[4] = system: gt1b (isolate Con1) subgenomic I389/NS3-3′/LucUbiMeo/ET replicon; assay: gt1b sub-genomic replicon dose-response; assay type: cell-based, Hepatitis C Virus; conditions: Huh7 cells stably harbouring the Con1 replicon, 72 h, luciferase
Huh7-J20 cells [5] = conditions: cited from earlier work
HCVcc gt 2a strain JFH-1 [6] = system: HCVcc gt 2a strain JFH-1; parameters: method as in Iro et al.[23]; conditions: Huh7-J20 reporter cells; ref Iro et al.[23]; cited from earlier work
[7] = Cell viability assay (WST-1); conditions: human, Huh7-J20 cells
Description: as §3, §4

HCVcc gt 2a strain JFH-1 [8] = assay: HCVcc post-entry model (Protocol 3: drug added after 3 h infection), SEAP; assay type: cell-based, Hepatitis C Virus; conditions: 10 μM, 3 d
Description: (§1) Reagents and conditions: a) K2CO3, DMF, room temperature, 24 h; b) MeI, NaH, DMF, 0 °C, 4 h. (B,C) Antiviral activity on HCVcc and cell viability. […] Then, inoculum was removed and cells re-fed with fresh medium. After 72 h the infected cell medium was collected and inhibitory effect was determined by measuring SEAP activity (top). Cell viability analysis was performed following same conditions with no viral infection (bottom). The values of DMSO-treated cells are expressed as 100% and those of the drug-treated cells as relative to this DMSO control. Error bars indicate standard error of the means for 3 experiments. (C) Huh7-J20 cells were infected for 3 h with JFH-1 and then treated for 3 d with drugs (10 μM) (post-entry, top) or infected for 3 h in the presence of the drugs, after a pretreatment of 1 h, and then incubated for 3 d maintaining drugs in the medium (full life cycle, centre). SEAP assay was performed on infected cell medium to determine antiviral activity. Data are presented as in (B) above. Cell viability was performed following full life cycle protocol (bottom).
(§2) To assess the effect of compounds on HCV infection, we used three protocols: Protocol 1 where Huh7-J20[23] cells were pre-treated for 1 h and exposed to the cell culture infectious HCV (HCVcc) gt 2a strain JFH-1 in the presence of 10 μM drug or equivalent DMSO (as a vehicle control) for 3 h. […]

[9] = system: SGR-JFH-luc sub-genomic replicon; assay type: cell-based, Hepatitis C Virus
HCVcc gt 2a strain JFH-1 [10] = assay: HCVcc entry model (Protocol 1: drug only during pre-treatment and 3 h infection), SEAP; assay type: cell-based, Hepatitis C Virus; conditions: 10 μM, 1 h pre-treatment + 3 h infection, then 72 h without drug
Description: as §1, §2

Compound	pIC50 (HCVcc gt 2a strain JFH-1 [1])	CC50 (Huh7-J20 cells [2]) [µM]	also measured
O=C(Cn1c(=O)ccn(CCCCCOc2ccc(Br)cc2)c1=O)Nc1ccc(Oc2ccc(Cl)cc2)cc1 [Z385]	6.23	59.2	IC50 [3]: 0.66 µM; reduction of total viral RNA levels (HCVcc JFH-1DSGCSL): 90%; IC50 [4]: 6.9 µM
C[C@@]1(O)[C@H](O)[C@@H](CO)O[C@H]1n1cnc2c(N)ncnc21 [2′-C-methyladenosine]	–	–	CC50 (Huh7-J20 cells [5]): > 30 µM; pIC50 (HCVcc gt 2a strain JFH-1 [6]): 5.70
O=C(Cn1c(=O)ccn(CCCCOc2ccc(Br)cc2)c1=O)Nc1ccc(Oc2ccccc2)cc1 [Z397]	5.53	61.1	–
CN(C(=O)Cn1c(=O)ccn(CCCCCOc2ccc(Br)cc2)c1=O)c1ccc(Oc2ccccc2)cc1 [Z431]	–	–	pIC50 (HCVcc gt 2a strain JFH-1 [1]; Hepatitis C virus, 72 h): 6.30; CC50 at 3 d [7]: 2.67 µM
O=C(Cn1c(=O)ccn(Cc2ccccc2)c1=O)Nc1ccc(Oc2ccccc2)cc1 [Z176]	–	–	pIC50 (HCVcc gt 2a strain JFH-1 [1]; Hepatitis C virus, 72 h): 5.87; CC50 at 3 d [7]: 17.6 µM
O=C(Cn1c(=O)ccn(CCCCOCc2ccc(Br)cc2)c1=O)Nc1ccc(Oc2ccccc2)cc1 [Z432]	5.89	19.2	increase in cytotoxicity compared to Z263 (Huh7-J20 cells [2]): ~3 fold
O=C(Cn1c(=O)c(I)cn(CCCCCOc2ccc(Br)cc2)c1=O)Nc1ccc(Oc2ccccc2)cc1 [Z439]	5.43	29.7	–
O=C(Cn1c(=O)ccn(CCCCCCc2ccccc2)c1=O)Nc1ccc(Oc2ccccc2)cc1 [Z437]	5.53	14.7	–
O=C(Cn1c(=O)ccn(CCCCCCCCOc2ccc(Br)cc2)c1=O)Nc1ccc(Oc2ccccc2)cc1 [Z401]	7.04 and 7.03	22.6	antiviral activity post-entry (HCVcc gt 2a strain JFH-1 [8]): strongly effective post-entry; antiviral activity, short treatment, 48 h post transfection [9]: 50%; IC50 [3]: 0.69 µM; reduction of total viral RNA levels (HCVcc JFH-1DSGCSL): 90%; inhibition of virus infection (HCVcc entry) relative to DMSO (HCVcc gt 2a strain JFH-1 [10]): 80%; IC50 [4]: 2.2 µM
O=C(Cn1c(=O)ccn(CCCCCOc2ccc(Br)cc2)c1=O)Nc1ccc(Oc2ccc(F)cc2)cc1 [Z414]	6.20	30.5	–
O=C(Cn1c(=O)ccn(CCCCCOc2ccc(Br)cc2)c1=O)Nc1ccc(C(=O)c2ccccc2)cc1 [Z430]	6.03	11.5	–
Cc1ccc(Oc2ccc(NC(=O)Cn3c(=O)ccn(CCCCCOc4ccc(Br)cc4)c3=O)cc2)cc1 [Z413]	6.50	27.4	–
O=C(Cn1c(=O)ccn(CCCCCOc2ccc(-c3ccccc3)cc2)c1=O)Nc1ccc(Oc2ccccc2)cc1 [Z438]	5.76	9.6	–
O=C(Cn1c(=O)ccn(CCCCCOc2ccc(Br)cc2)c1=O)Nc1ccc(Cc2ccccc2)cc1 [Z387]	6.15	132	IC50 [3]: 0.94 µM; reduction of total viral RNA levels (HCVcc JFH-1DSGCSL): 90%; IC50 [4]: 23.3 µM
O=C(Cn1c(=O)ccn(CCCCCOc2ccccc2)c1=O)Nc1ccc(Oc2ccccc2)cc1 [Z436]	5.44	13	–
O=C(Cn1c(=O)ccn(CCCCCOc2ccc(Br)cc2)c1=O)Nc1ccc(Oc2ccccc2)cc1 [Z263]	–	–	pIC50 (HCVcc gt 2a strain JFH-1 [1]; Hepatitis C virus, 72 h): 5.51; CC50 at 3 d [7]: 56.3 µM
O=C(Cn1c(=O)ccn(CCCCCOc2ccc(Br)cc2)c1=O)Nc1ccc(OCc2ccccc2)cc1 [Z377]	5.53	18.4	–
O=C(Cn1c(=O)ccn(CCCCCCOc2ccc(Br)cc2)c1=O)Nc1ccc(Oc2ccccc2)cc1 [Z400]	6.61	66.5	IC50 [3]: 1.1 µM; reduction of total viral RNA levels (HCVcc JFH-1DSGCSL): 90%; IC50 [4]: 12.6 µM
O=C(Cn1c(=O)ccn(CCCCCOc2cccc(Br)c2)c1=O)Nc1ccc(Oc2ccccc2)cc1 [Z421]	5.94	44.6	–
Cc1cn(CCCCCOc2ccc(Br)cc2)c(=O)n(CC(=O)Nc2ccc(Oc3ccccc3)cc2)c1=O [Z376]	–	69.2	–
N#Cc1ccc(OCCCCCn2ccc(=O)n(CC(=O)Nc3ccc(Oc4ccccc4)cc3)c2=O)cc1 [Z434]	5.73	10.5	–
